Calls of active or inactive are those of the source. No cut-off for these calls is given here.
Legend:
Assay type in all cases: functional, cell-based
EKVX = assay: Cytotoxicity against human EKVX cells after 8 days; details: 192 h
[1] = Cytotoxicity against human WSU-FSCCL cells measured after 3 days; details: 72 h
NCI-H2170 = assay: Cytotoxicity against human NCI-H2170 cells measured after 3 days; details: NCI-H2170, 72 h
[2] = Cytotoxicity against human NCE-G 121 cells measured after 3 days; details: NCE-G 121, 72 h
SNU-387 = assay: Cytotoxicity against human SNU-387 cells measured after 3 days; details: SNU-387, 72 h
[3] = Cytotoxicity against human OVISE cells measured after 3 days; details: 72 h
[4] = Cytotoxicity against human NCI-H1568 cells after 8 days; details: NCI-H1568, 192 h
[5] = Cytotoxicity against human JHH7 cells measured after 3 days; details: JHH7, 72 h
HBL-100 = assay: Cytotoxicity against human HBL-100 cells measured after 8 days; details: HBL-100, 192 h
HCC95 = assay: Cytotoxicity against human HCC95 cells measured after 3 days; details: HCC95, 72 h
NCI-H2030 = assay: Cytotoxicity against human NCI-H2030 cells measured after 8 days; details: NCI-H2030, 192 h
[6] = Cytotoxicity against human EFM-192A cells measured after 8 days; details: 192 h
[7] = Cytotoxicity against human HNT-34 cells measured after 3 days; details: HNT-34, 72 h
IGROV-1 = assay: Cytotoxicity against human IGROV-1 cells measured after 3 days; details: IGROV-1, 72 h
[8] = Cytotoxicity against human OCI-M2 cells measured after 3 days; details: OCI-M2, 72 h
EBC-1 = assay: Cytotoxicity against human EBC-1 cells after 8 days; details: EBC-1, 192 h
ACHN = assay: Cytotoxicity against human ACHN cells measured after 3 days; details: 72 h
TERT-RPE1 = assay: Cytotoxicity against hTERT-RPE1 cells measured after 8 days; details: Homo sapiens, RPE-1, 192 h
PC-9 = assay: Cytotoxicity against human PC-9 cells assessed as growth inhibition at 2 uM supplemented with fresh medium containing compound every 3 days for 9 days by Beckman Coulter counting method; details: time 9.0 day
SUM-159-PT = assay: Cytotoxicity against human SUM159PT cells measured after 3 days; details: 72 h
NOMO-1 = assay: Cytotoxicity against human NOMO-1 cells measured after 3 days; details: NOMO-1, 72 h
[9] = Cytotoxicity against human SW527 cells measured after 3 days; details: SW527, 72 h
SK-BR-3 = assay: Cytotoxicity against human SK-BR-3 cells measured after 3 days; details: SK-BR-3, 72 h
HCC1395 = assay: Cytotoxicity against human HCC1395 cells measured after 8 days; details: HCC1395, 192 h
TYK-nu = assay: Cytotoxicity against human TYK-nu cells measured after 3 days; details: 72 h
EB-3 = assay: Cytotoxicity against human EB-3 cells measured after 3 days; details: EB-3, 72 h
[10] = Cytotoxicity against human KMS-27 cells measured after 3 days; details: KMS-27, 72 h
COR-L47 = assay: Cytotoxicity against human COR-L47 cells measured after 3 days; details: COR-L47, 72 h
Hep 3B2 = assay: Cytotoxicity against human Hep 3B2.1-7 cells measured after 3 days; details: Hep3B, 72 h
[11] = Cytotoxicity against human NCE-G 122 cells measured after 3 days; details: NCE-G 122, 72 h
SNU-423 = assay: Cytotoxicity against human SNU-423 cells measured after 3 days; details: SNU-423, 72 h
ME-180 = assay: Cytotoxicity against human ME-180 cells measured after 8 days; details: ME-180, 192 h
[12] = Cytotoxicity against human HCC1482 cells measured after 8 days; details: HCC1482, 192 h
OCI-Ly10 = assay: Cytotoxicity against human OCI-Ly10 cells measured after 8 days; details: OCI-Ly10, 192 h
786-0 = assay: Cytotoxicity against human 786-0 cells measured after 8 days; details: 786-0, 192 h
LS174T = assay: Cytotoxicity against human LS174T cells measured after 8 days; details: 192 h
[13] = Cytotoxicity against human SCLC-22H cells measured after 8 days; details: 192 h
[14] = Cytotoxicity against human HEC-251 cells measured after 8 days; details: HEC-251, 192 h
Toledo = assay: Cytotoxicity against human Toledo cells measured after 8 days; details: 192 h
[15] = Cytotoxicity against human 4498-16820 Mel-BR1 X1 cells measured after 8 days; details: 4498-16820 Mel-BR1 X1, 192 h
[16] = Cytotoxicity against human KPP14449 cells measured after 8 days; details: KPP14449, 192 h
[17] = Cytotoxicity against human ECC-1 cells measured after 8 days; details: ECC-1, 192 h
[18] = Cytotoxicity against human Kelly cells measured after 8 days; details: 192 h
[19] = Cytotoxicity against human BICR 22 cells measured after 8 days; details: BICR 22, 192 h
HPAF-II = assay: Cytotoxicity against human HPAF-II cells measured after 8 days; details: 192 h
SK-N-BE(2) = assay: Cytotoxicity against human SK-N-BE(2) cells measured after 8 days; details: SKNBE2, 192 h
Rec1 = assay: Cytotoxicity against human REC1 cells measured after 8 days; details: Rec1, 192 h
[20] = Cytotoxicity against human KR7251 cells measured after 8 days; details: KR7251, 192 h
SW626 = assay: Cytotoxicity against human SW626 cells measured after 8 days; details: SW626, 192 h
[21] = Cytotoxicity against human HEC-88nu cells measured after 8 days; details: 192 h
[22] = Cytotoxicity against human KNS-81 cells measured after 8 days; details: KNS-81, 192 h
RPMI-2650 = assay: Cytotoxicity against human RPMI-2650 cells measured after 8 days; details: RPMI-2650, 192 h
DOHH-2 = assay: Cytotoxicity against human DOHH-2 cells measured after 8 days; details: DOHH-2, 192 h
CAL-54 = assay: Cytotoxicity against human CAL-54 cells measured after 8 days; details: CAL-54, 192 h
HL-60 = assay: Cytotoxicity against human HL-60 cells measured after 8 days; details: HL-60, 192 h
Pfeiffer = assay: Cytotoxicity against human Pfeiffer cells measured after 8 days; details: 192 h
[23] = Cytotoxicity against human UM-RC-7 cells measured after 8 days; details: UM-RC-7, 192 h
NCI-H2171 = assay: Cytotoxicity against human NCI-H2171 cells measured after 8 days; details: NCI-H2171, 192 h
[24] = Cytotoxicity against human JJ012 cells measured after 8 days; details: JJ012, 192 h
BHY = assay: Cytotoxicity against human BHY cells measured after 8 days; details: 192 h
NCI-H446 = assay: Cytotoxicity against human NCI-H446 cells measured after 8 days; details: NCI-H446, 192 h

C/C=C/Cn1cc(-c2cc(OC)c(C(=O)N3CCOCC3)cc2OC)c2cc(C)[nH]c2c1=O
IC50 (EKVX): 2 µM | IC50 [1]: 5 µM | IC50 (NCI-H2170): 5 µM | IC50 [2]: 5 µM | IC50 (SNU-387): 5 µM | IC50 [3]: 5 µM | IC50 [4]: 2 µM | IC50 [5]: 5 µM | IC50 (HBL-100): 2 µM | IC50 (HCC95): 5 µM | IC50 (NCI-H2030): 2 µM | IC50 [6]: 2 µM | IC50 [7]: 5 µM | IC50 (IGROV-1): 5 µM | IC50 [8]: 5 µM | IC50 (EBC-1): 2 µM | IC50 (ACHN): 5 µM | IC50 (TERT-RPE1): 2 µM | Activity (PC-9): inactive | IC50 (SUM-159-PT): 5 µM | IC50 (NOMO-1): 5 µM | IC50 [9]: 5 µM | IC50 (SK-BR-3): 5 µM | IC50 (HCC1395): 2 µM | IC50 (TYK-nu): 5 µM | IC50 (EB-3): 5 µM | IC50 [10]: 5 µM | IC50 (COR-L47): 5 µM | IC50 (Hep 3B2): 5 µM | IC50 [11]: 5 µM | IC50 (SNU-423): 5 µM

C/C=C/Cn1cc(-c2ccc(C(C)(C)O)cc2OC)c2cc[nH]c2c1=O
IC50 (ME-180): 20 µM | IC50 [12]: 20 µM | IC50 (OCI-Ly10): 20 µM | IC50 (786-0): 20 µM | IC50 (LS174T): 20 µM | IC50 [13]: 20 µM | IC50 [14]: 20 µM | IC50 (Toledo): 20 µM | IC50 [15]: 20 µM | IC50 [16]: 20 µM | IC50 [17]: 20 µM | IC50 [18]: 20 µM | IC50 [19]: 20 µM | IC50 (HPAF-II): 20 µM | IC50 (SK-N-BE(2)): 20 µM | IC50 (Rec1): 16.4 µM | IC50 [20]: 20 µM | IC50 (SW626): 20 µM | IC50 [21]: 20 µM | IC50 [22]: 20 µM | IC50 (RPMI-2650): 20 µM | IC50 (DOHH-2): 10.7 µM | IC50 (CAL-54): 20 µM | IC50 (HL-60): 13.6 µM | IC50 (Pfeiffer): 6.95 µM | IC50 [23]: 20 µM | IC50 (NCI-H2171): 20 µM | IC50 [24]: 20 µM | IC50 (BHY): 20 µM | IC50 (NCI-H446): 20 µM

C/C=C/Cn1cc(-c2ccc(C(=O)N3CCOCC3)cc2)c2cc[nH]c2c1=O
IC50 (ME-180): 20 µM | IC50 [12]: 20 µM | IC50 (OCI-Ly10): 20 µM | IC50 (786-0): 20 µM | IC50 (LS174T): 20 µM | IC50 [13]: 20 µM | IC50 [14]: 20 µM | IC50 [15]: 20 µM | IC50 [16]: 20 µM | IC50 [17]: 20 µM | IC50 [18]: 20 µM | IC50 [19]: 20 µM | IC50 (HPAF-II): 20 µM | IC50 (SK-N-BE(2)): 20 µM | IC50 (Rec1): 20 µM | IC50 [20]: 20 µM | IC50 (SW626): 20 µM | IC50 [21]: 20 µM | IC50 [22]: 20 µM | IC50 (RPMI-2650): 20 µM | IC50 (DOHH-2): 16.1 µM | IC50 (CAL-54): 20 µM | IC50 [23]: 20 µM | IC50 (NCI-H2171): 20 µM | IC50 [24]: 20 µM | IC50 (BHY): 20 µM | IC50 (NCI-H446): 20 µM

Source: ChEMBL document CHEMBL5260810, “Inhibition of bromodomain-containing protein 9 for the prevention of epigenetically-defined drug resistance” (Bioorg Med Chem Lett, 2017)
